Measured values from US20070203325A1, “Integrase-dirived HIV-inhibiting agents” (priority 2006, published 2007).

Experiments:
[1] = test system: HIV-1 NL4.3-Nef+/GFP+; test: Infection of MT4 cells by virus from producer cells expressing the IN C-terminal domain, GFP-positive cell count; type: cell-based; settings: viruses produced by 293T cells expressing the protein, 48 h post-infection
[2] = test system: HIV-1 NL4.3-Nef+/GFP+; test: Infection of HeLa-β-Gal-CD4/CCR5 cells by virus from producer cells expressing the IN C-terminal domain, MAGI assay; type: cell-based; settings: viruses produced by 293T cells expressing the protein, 48 h post-infection

Substance: IN C-terminal domain: T7-tagged HIV-1 integrase C-terminal domain 205-288 (SEQ ID NO:2) expressed in viral producer cells
- virus infection of MT4 cells [1]: significantly impaired
- virus infection of HeLa-β-Gal-CD4/CCR5 cells [2]: significantly impaired
